Assay results taken from patent US12168059B2, “Trimeric peptides for antisense delivery” (Sarepta Therapeutics, Inc., priority 2018, dated 2024).
Where no end group is shown, it is not given here.

Tested on: HeLa-654 cells
Test: HeLa-654 eGFP assay (flow cytometry: mean fluorescence, gated cell count, F×C)
Format: cell-based, human
Procedure: With the 36 constructs synthesized, the ability to modulate PMO activity using the modified HeLa cell assay was tested. The HeLa-654 cells were stably transfected to express a nonfluorescent eGFP protein. The eGFP gene is interrupted by a mutant intron from the human β-globin gene (IVS2-654). The insertion alters pre-mRNA splicing to cause retention of a fragment in the mature mRNA that results in a nonfluorescent protein. PMO IVS2-654 base-pairs with the β-globin insertion, modifies mRNA splicing, and thereby leads to expression of fluorescent eGFP.
For treatment, the crude reaction mixture was diluted to 5 μM in media. The concentration of the modular construct was calculated based on the original concentration of the module 1-2 conjugate mixed in the reaction. Using media containing 10% fetal bovine serum (FBS), the cells were treated with each construct for 22 hours, after which the cellular fluorescence was measured by flow cytometry.
The different modules led to several noticeable trends in the level of cellular fluorescence (FIG. 4). When module 2 was DPV6, the overall construct consistently led to high fluorescence, regardless of which peptides were placed in module 3 and 4. However, when either pVEC or TP10 was placed in module 2, minor cellular fluorescence was observed. […]

Substance: copper
- cell viability, in words (low micromolar concentrations of copper in cell culture): did not affect cell viability

Substance: W/R: W/R peptide (RRWWRRWRR) conjugated to PMO on its own (also: conjugated to PMO (position not given here))
- activity relative to PMO by itself (single peptide conjugated to PMO on its own): around 3 ×
